Data taken from PubChem BioAssay (NCI).
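Protocol summary: plate cells (96-well), add compound at 5 concentrations, incubate 48 h, interpolate endpoints linearly. GI50 marks 50% less growth. TGI: concentration producing complete growth inhibition.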

Experiments:
Experiment in all cases: inhibition of tumour cell growth, NCI panel, 48 h; in the data active = GI50 below about 0.43 µM; inactive = the rest
[1] = test system: 786-0 renal
[2] = test system: A498 renal
[3] = test system: A549 NSCLC
[4] = test system: ACHN renal
[5] = test system: BT-549 breast
[6] = test system: CAKI-1 renal
[7] = test system: CCRF-CEM leukemia
[8] = test system: COLO 205 colon
[9] = test system: DU-145 prostate
[10] = test system: EKVX NSCLC
[11] = test system: HCC-2998 colon
[12] = test system: HCT-116 colon
[13] = test system: HCT-15 colon
[14] = test system: HL-60(TB) leukemia
[15] = test system: HOP-62 NSCLC
[16] = test system: HOP-92 NSCLC
[17] = test system: HS 578T breast
[18] = test system: HT29 colon
[19] = test system: IGROV1 ovarian
[20] = test system: KM12 colon
[21] = test system: LOX IMVI melanoma
[22] = test system: M14 melanoma
[23] = test system: MALME-3M melanoma
[24] = test system: MCF7 breast
[25] = test system: MDA-MB-231 breast
[26] = test system: MOLT-4 leukemia
[27] = test system: NCI-H226 lung
[28] = test system: NCI-H23 lung
[29] = test system: NCI-H460 lung
[30] = test system: NCI-H522 lung
[31] = test system: OVCAR-3 ovarian
[32] = test system: OVCAR-4 ovarian
[33] = test system: OVCAR-5 ovarian
[34] = test system: OVCAR-8 ovarian
[35] = test system: PC-3 prostate
[36] = test system: RPMI-8226 leukemia
[37] = test system: RXF 393 renal
[38] = test system: SF-268 CNS
[39] = test system: SF-539 CNS
[40] = test system: SK-MEL-2 melanoma
[41] = test system: SK-MEL-28 melanoma
[42] = test system: SK-MEL-5 melanoma
[43] = test system: SK-OV-3 ovarian
[44] = test system: SN12C renal
[45] = test system: SNB-19 CNS
[46] = test system: SNB-75 CNS
[47] = test system: SR leukemia
[48] = test system: SW-620 colon
[49] = test system: T-47D breast
[50] = test system: TK-10 renal
[51] = test system: U251 CNS
[52] = test system: UACC-257 melanoma
[53] = test system: UACC-62 melanoma
[54] = test system: UO-31 renal

O=C1Nc2ccccc2/C1=C\c1c(-c2ccccc2)nc2ccccn12
47 µM: TGI [12]
81.5 µM: TGI [1]
21 µM: TGI [51]
> 100 µM: TGI [2] | TGI [4] | TGI [6] | TGI [7] | TGI [9] | TGI [10] | TGI [13] | TGI [17] | TGI [20] | TGI [21] | TGI [23] | TGI [24] | TGI [25] | TGI [26] | TGI [28] | TGI [31] | TGI [32] | TGI [33] | TGI [34] | TGI [35] | TGI [38] | TGI [41] | TGI [42] | TGI [44] | TGI [45] | TGI [47] | TGI [48] | TGI [49] | TGI [52] | TGI [53] | TGI [54]
7.65 µM: TGI [30]
20.2 µM: TGI [19]
inactive: GI50 [1] 5.98 µM | GI50 [2] 5.87 µM | GI50 [3] 3.9 µM | GI50 [4] 4.45 µM | GI50 [5] 3.97 µM | GI50 [6] 2.7 µM | GI50 [7] 2.57 µM | GI50 [8] 2.21 µM | GI50 [9] 4.46 µM | GI50 [10] 3.1 µM | GI50 [11] 4.56 µM | GI50 [12] 3.61 µM | GI50 [13] 3.6 µM | GI50 [14] 2.59 µM | GI50 [15] 2.7 µM | GI50 [16] 3.98 µM | GI50 [17] 9.31 µM | GI50 [18] 3.05 µM | GI50 [19] 2.59 µM | GI50 [20] 2.55 µM | GI50 [21] 4.34 µM | GI50 [22] 2.48 µM | GI50 [23] 3.88 µM | GI50 [24] 3.52 µM | GI50 [25] 7.29 µM | GI50 [26] 4.2 µM | GI50 [27] 4.5 µM | GI50 [28] 3.77 µM | GI50 [29] 3.24 µM | GI50 [30] 1.83 µM | GI50 [31] 4.26 µM | GI50 [32] 6.21 µM | GI50 [33] 4.39 µM | GI50 [34] 4.9 µM | GI50 [35] 3.14 µM | GI50 [36] 2.67 µM | GI50 [37] 2.75 µM | GI50 [38] 5.23 µM | GI50 [39] 3.96 µM | GI50 [40] 2.35 µM | GI50 [41] 5.53 µM | GI50 [42] 2.83 µM | GI50 [43] 1.95 µM | GI50 [44] 4.91 µM | GI50 [45] 4.93 µM | GI50 [46] 1.85 µM | GI50 [47] 0.498 µM | GI50 [48] 3.02 µM | GI50 [49] 4.4 µM | GI50 [50] 5.05 µM | GI50 [51] 3.97 µM | GI50 [52] 8.96 µM | GI50 [53] 3.88 µM | GI50 [54] 1.95 µM
50.9 µM: TGI [5]
7.8 µM: TGI [22]
12.1 µM: TGI [37]
13.9 µM: TGI [18]
60 µM: TGI [3]
6.47 µM: TGI [14]
57.8 µM: TGI [27]
6.97 µM: TGI [40]
50.4 µM: TGI [16]
34.8 µM: TGI [11]
37.1 µM: TGI [50]
18.9 µM: TGI [39]
6.1 µM: TGI [46]
15.5 µM: TGI [15]
8.56 µM: TGI [36]
12.9 µM: TGI [29]
4.69 µM: TGI [43]
5.58 µM: TGI [8]
